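Step 1: Grow cells in 96-well plates. Step 2: Expose to compound for 48 hours at 5 concentrations. Step 3: Interpolate endpoints linearly; if unreached, use highest concentration. TGI is the concentration that stops growth completely.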
Key:
Assay in all cases: inhibition of tumour cell growth, NCI panel, 48 h
SK-MEL-2 melanoma = system: SK-MEL-2 melanoma
KM12 colon = system: KM12 colon
OVCAR-8 ovarian = system: OVCAR-8 ovarian
SNB-19 CNS = system: SNB-19 CNS
RXF 393 renal = system: RXF 393 renal
M19-MEL melanoma = system: M19-MEL melanoma
KM20L2 colon = system: KM20L2 colon
DMS 114 small cell lung = system: DMS 114 small cell lung
UACC-257 melanoma = system: UACC-257 melanoma
NCI-H23 lung = system: NCI-H23 lung
A498 renal = system: A498 renal
DMS 273 small cell lung = system: DMS 273 small cell lung
SF-295 CNS = system: SF-295 CNS
NCI-H522 lung = system: NCI-H522 lung
OVCAR-5 ovarian = system: OVCAR-5 ovarian
SW-620 colon = system: SW-620 colon
EKVX NSCLC = system: EKVX NSCLC
SK-OV-3 ovarian = system: SK-OV-3 ovarian
UO-31 renal = system: UO-31 renal
SK-MEL-5 melanoma = system: SK-MEL-5 melanoma
OVCAR-4 ovarian = system: OVCAR-4 ovarian
SK-MEL-28 melanoma = system: SK-MEL-28 melanoma
SNB-75 CNS = system: SNB-75 CNS
TK-10 renal = system: TK-10 renal
COLO 205 colon = system: COLO 205 colon
UACC-62 melanoma = system: UACC-62 melanoma
SF-268 CNS = system: SF-268 CNS
HCC-2998 colon = system: HCC-2998 colon
A549 NSCLC = system: A549 NSCLC
HCT-116 colon = system: HCT-116 colon
786-0 renal = system: 786-0 renal
SN12C renal = system: SN12C renal
XF 498 CNS = system: XF 498 CNS
NCI-H226 lung = system: NCI-H226 lung
DLD-1 colon = system: DLD-1 colon
ACHN renal = system: ACHN renal
HOP-92 NSCLC = system: HOP-92 NSCLC
MALME-3M melanoma = system: MALME-3M melanoma
IGROV1 ovarian = system: IGROV1 ovarian
M14 melanoma = system: M14 melanoma
OVCAR-3 ovarian = system: OVCAR-3 ovarian
HT29 colon = system: HT29 colon
HCT-15 colon = system: HCT-15 colon
HOP-62 NSCLC = system: HOP-62 NSCLC
LOX IMVI melanoma = system: LOX IMVI melanoma
SNB-78 CNS = system: SNB-78 CNS
U251 CNS = system: U251 CNS
LXFL 529 NSCLC = system: LXFL 529 NSCLC
CAKI-1 renal = system: CAKI-1 renal

Measured: TGI

N#CCC(=O)N/N=C1/C(=O)N(c2ccc(Cl)cc2)C(=O)C(=O)C1c1nc2ccccc2s1 (centres undefined)
63.7 µM: SNB-75 CNS
> 100 µM: all other assays above
